Earlier results as cited in patent US7691896B2, “Analogs of salinosporamide A” (President and Fellows of Harvard College, priority 2005, dated 2010).
Peptide text beside a SMILES is read from it. * marks the point of attachment. Cbz = O=C(OCc1ccccc1)*

Test system: PC12 cells
Settings: Tsubuki et al. 1993

CC(C)C[C@@H](C=O)NC(=O)[C@H](CC(C)C)NC(=O)[C@H](CC(C)C)NC(=O)OCc1ccccc1 [benzyloxycarbonyl (Z)-Leu-Leu-leucinal] (Cbz-Leu-Leu-Leu-aldehyde)
optimal concentration inducing neurite outgrowth: 30 nM
